Experimental findings from US9126985B2, “Tetra- and pentasubstituted benzimidazolium compounds” (Boehringer Ingelheim International GmbH, priority 2013, dated 2015) are described below.

The target in data set [1] is T1, ENaC (Epithelial Sodium Channel) (Mus musculus, UniProt Q61180+Q9WU38+Q9WU39).
T1 construct: Mouse kidney M-1 cells were cultivated in DMEM containing 5% FCS and 5 μM dexamethasone; endogenous in cells; host or cells: mouse kidney M-1 cells
T1 sequence (Q61180 1-699): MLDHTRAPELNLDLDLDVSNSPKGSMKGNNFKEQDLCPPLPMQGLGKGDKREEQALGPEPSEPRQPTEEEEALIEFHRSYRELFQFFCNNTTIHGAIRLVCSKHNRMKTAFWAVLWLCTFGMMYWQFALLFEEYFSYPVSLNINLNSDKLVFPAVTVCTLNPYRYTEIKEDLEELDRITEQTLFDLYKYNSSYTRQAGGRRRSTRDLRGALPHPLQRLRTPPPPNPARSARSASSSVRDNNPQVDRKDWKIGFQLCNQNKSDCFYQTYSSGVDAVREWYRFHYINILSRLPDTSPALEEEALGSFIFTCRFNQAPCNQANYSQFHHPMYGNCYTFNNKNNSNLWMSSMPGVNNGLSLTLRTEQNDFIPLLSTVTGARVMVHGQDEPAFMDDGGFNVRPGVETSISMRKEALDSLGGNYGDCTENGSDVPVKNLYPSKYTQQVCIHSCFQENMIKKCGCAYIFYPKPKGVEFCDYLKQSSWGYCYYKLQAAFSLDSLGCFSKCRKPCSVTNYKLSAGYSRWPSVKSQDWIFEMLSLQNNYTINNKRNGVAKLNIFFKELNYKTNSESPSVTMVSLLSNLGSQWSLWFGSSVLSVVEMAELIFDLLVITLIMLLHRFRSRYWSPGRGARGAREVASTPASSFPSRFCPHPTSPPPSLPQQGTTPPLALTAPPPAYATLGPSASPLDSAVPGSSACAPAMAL
T1 sequence (Q9WU38 1-638): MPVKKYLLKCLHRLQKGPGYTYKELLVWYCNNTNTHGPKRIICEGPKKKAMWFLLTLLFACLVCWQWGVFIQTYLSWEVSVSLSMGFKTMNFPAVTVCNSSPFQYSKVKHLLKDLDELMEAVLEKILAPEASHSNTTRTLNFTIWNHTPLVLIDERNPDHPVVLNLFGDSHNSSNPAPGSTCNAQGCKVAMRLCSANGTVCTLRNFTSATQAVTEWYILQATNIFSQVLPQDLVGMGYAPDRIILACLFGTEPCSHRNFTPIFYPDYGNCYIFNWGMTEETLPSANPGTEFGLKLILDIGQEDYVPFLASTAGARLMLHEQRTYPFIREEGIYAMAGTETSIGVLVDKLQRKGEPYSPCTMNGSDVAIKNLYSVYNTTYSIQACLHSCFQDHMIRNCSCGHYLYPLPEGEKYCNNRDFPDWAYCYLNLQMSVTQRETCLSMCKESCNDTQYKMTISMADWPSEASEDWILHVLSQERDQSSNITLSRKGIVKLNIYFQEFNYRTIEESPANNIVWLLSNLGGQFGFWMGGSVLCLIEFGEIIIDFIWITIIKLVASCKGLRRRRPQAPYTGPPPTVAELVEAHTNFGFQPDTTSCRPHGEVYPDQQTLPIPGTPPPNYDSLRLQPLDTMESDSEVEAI
T1 sequence (Q9WU39 1-655): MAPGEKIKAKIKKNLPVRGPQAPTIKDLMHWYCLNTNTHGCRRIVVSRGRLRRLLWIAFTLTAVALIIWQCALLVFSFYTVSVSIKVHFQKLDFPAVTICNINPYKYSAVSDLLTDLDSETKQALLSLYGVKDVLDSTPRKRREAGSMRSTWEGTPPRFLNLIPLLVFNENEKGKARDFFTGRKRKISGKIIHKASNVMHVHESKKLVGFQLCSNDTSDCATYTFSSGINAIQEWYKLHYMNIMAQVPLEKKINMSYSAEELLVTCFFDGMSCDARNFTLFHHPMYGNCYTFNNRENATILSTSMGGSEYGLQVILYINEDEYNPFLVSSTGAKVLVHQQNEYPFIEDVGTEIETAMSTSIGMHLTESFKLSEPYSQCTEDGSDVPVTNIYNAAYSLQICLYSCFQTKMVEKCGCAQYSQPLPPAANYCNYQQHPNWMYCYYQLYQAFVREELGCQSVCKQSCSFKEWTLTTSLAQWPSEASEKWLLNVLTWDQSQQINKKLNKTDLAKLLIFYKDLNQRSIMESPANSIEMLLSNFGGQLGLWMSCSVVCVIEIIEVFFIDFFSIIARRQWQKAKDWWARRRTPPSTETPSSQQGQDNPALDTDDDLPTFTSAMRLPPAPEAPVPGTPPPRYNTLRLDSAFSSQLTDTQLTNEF
Put plainly: Ussing Chamber assay: inhibition of amiloride sensitive short circuit current in M-1 cells. Format: cell-based. The settings on record: Mouse kidney M-1 cells on transwell filters, compound added to apical solution, 37° C. The procedure: Mouse kidney M-1 cells were cultivated in DMEM containing 5% FCS and 5 μM dexamethasone for 10 to 12 days on polyester transwell filters. Filters were inserted into a teflon-coated well-plate which fit into the ussing chamber system. Prior to measurement the medium of M-1 cells was replaced with Caco-2 transport buffer (Invitrogen, Germany). During measurements, the Ussing chamber temperature was kept at 37° C. Short circuit currents (I_sc) were measured in the voltage-clamp mode with the software package Lab View for data acquisition and analysis. The transepithelial electrical resistance (TEER) was determined by the application of voltage steps of ±5 mV every 5 sec. Compounds were administered at a final concentration of 3 μM or at increasing concentrations (1-3-10 μM) to the apical solution. At the end of each experiment the amiloride sensitive I_SC was measured by adding 3 μM amiloride to the apical compartment. Results are expressed as inhibition in percent of the amiloride effect or as IC50.
With the example compounds given above, the following IC50 values were determined in the Ussing Chamber assay: […]

A short description of data set [2]: Permeability in CALU-3 cells. Format: in vitro ADME. The settings on record: human, CALU-3 cell monolayers, pH 7.4, 37° C., 10 μM compound; for Papp A→B at 90 min, 10 μM: apical-to-basal; for Papp B→A at 90 min, 10 μM: basal-to-apical. The procedure: Permeability in CALU-3 Cells:
Permeability measurements across polarized, confluent CALU-3 cell monolayers grown on permeable filter supports are used to provide information on the potential of a compound to pass the lung epithelium. Apparent permeability coefficients (Papp) of the compounds across the CALU-3 cell monolayers are measured (pH 7.4, 37° C.) in apical-to-basal (AB) and basal-to-apical (BA) transport direction.
CALU-3 cells (1-2×10^5 cells/1 cm^2 area) are seeded on filter inserts (Costar transwell polycarbonate filters, 0.4 μm pore size) and cultured (for 10-12 days DMEM) until tight monolayers are formed. Compounds of interest are dissolved in appropriate solvent (DMSO, 10 mM stock solution). Stock solutions are diluted with HTP-4 buffer (128.13 mM NaCl, 5.36 mM KCl, 1 mM MgSO4, 1.8 mM CaCl2, 4.17 mM NaHCO3, 1.19 mM Na2HPO4×7H2O, 0.41 mM NaH2PO4×H2O, 15 mM HEPES, 20 mM glucose, 0.25% BSA, pH 7.4) to prepare the transport solutions (10 μM compound, final DMSO<=0.5%). The transport solution (TL) is applied to the apical or basolateral donor side for measuring A-B or B-A permeability (3 filter replicates), respectively. The receiver side contains the same buffer as the donor side. After 30 min of accommodation, samples are collected at the start t0=0 min and at the end of the experiment tn=90 min from the donor and at 0, 30, 60, and 90 min also from the receiver chamber. Volume removed is replenished by HTP-4 buffer. The compound concentration in the samples is measured by HPLC-MS/MS or scintillation counting. The permeability coefficient (Papp) and efflux ratio are calculated according to: Papp [cm/s]=(concentration receiver [nM]*volume receiver [mL]/time interval [sec])*(1/filter area)*(1/donor concentration [nM])
With example compounds given above, the following permeability values were determined in the CALU-3 cells assay: […]

`CCn1c(CNC(=O)c2nc(Cl)c(N)nc2N)[n+](CC2CCOCC2)c2cc(Cl)c(N(CCO)CCO)cc21` [Example 1.1] displayed a 50% inhibitory concentration (IC50) in data set [1] of 13 nM. In data set [2], `CCn1c(CNC(=O)c2nc(Cl)c(N)nc2N)[n+](CCOCCOCCO)c2ccc(O)cc21` [Example 1.2] gave a Papp A→B at 90 min, 10 μM of 0.5 ×10⁻⁶ cm/s and a Papp B→A at 90 min, 10 μM of 0.3 ×10⁻⁶ cm/s. The IC50 in data set [1] amounted to 1 nM. Regarding `CCn1c(CNC(=O)c2nc(Br)c(N)nc2N)[n+](CCOCCOCCO)c2ccc(O)cc21.O=C([O-])C(F)(F)F` [Example 2.1], in data set [2], the Papp A→B at 90 min, 10 μM worked out at 1.3 ×10⁻⁶ cm/s and the Papp B→A at 90 min, 10 μM came to 0.2 ×10⁻⁶ cm/s. In data set [1], this compound showed an IC50 of 1 nM. On to `C=CC[n+]1c(CNC(=O)c2nc(Br)c(N)nc2N)n(CC)c2cc(OCCCP(=O)(OCC)OCC)ccc21` [Example 2.2], for which 2 nM corresponded to half-maximal inhibition in data set [1] (IC50). In data set [1], `CCNC(=O)COc1ccc2c(c1)n(C1CCN(C(C)=O)CC1)c(CNC(=O)c1nc(Cl)c(N)nc1N)[n+]2CC` [Example 3.1] had a half-maximal inhibitory concentration (IC50) of 10 nM. `CCn1c(CNC(=O)c2nc(Cl)c(N)nc2N)[n+](CCCC#N)c2ccc(OCCCP(=O)(O)O)cc21` [Example 4.1]: inhibition in data set [1] was half-maximal at 31 nM (IC50).

Compound `CCOP(=O)(O)CCCOc1ccc2c(c1)n(CC)c(CNC(=O)c1nc(Cl)c(N)nc1N)[n+]2CC1CCOCC1` [Example 5.1] had an IC50 in data set [1] of 8 nM. Regarding `CC[n+]1c(CNC(=O)c2nc(Cl)c(N)nc2N)n(CC2CCN(C(=O)COCCOC)CC2)c2cc([O-])ccc21` [Example 6.1], inhibition in data set [1] was half-maximal at 3 nM (IC50).

Usually IC50 stands for the point on the concentration scale where inhibition reaches its midpoint. Read a low IC50 as inhibition by little substance. For orientation: Papp A→B means how fast a substance crosses the layer from the apical side. Higher therefore signals ready permeation. One may read the Papp B→A as the apparent permeability from the basolateral to the apical side of a cell layer.
